The target in assay [1] is T1, recombinant human monoamine oxidase-A (Homo sapiens, UniProt P21397).
T1 construct: purchased BD Biosciences (Bedford, MA, USA)
T1 sequence (P21397 1-527): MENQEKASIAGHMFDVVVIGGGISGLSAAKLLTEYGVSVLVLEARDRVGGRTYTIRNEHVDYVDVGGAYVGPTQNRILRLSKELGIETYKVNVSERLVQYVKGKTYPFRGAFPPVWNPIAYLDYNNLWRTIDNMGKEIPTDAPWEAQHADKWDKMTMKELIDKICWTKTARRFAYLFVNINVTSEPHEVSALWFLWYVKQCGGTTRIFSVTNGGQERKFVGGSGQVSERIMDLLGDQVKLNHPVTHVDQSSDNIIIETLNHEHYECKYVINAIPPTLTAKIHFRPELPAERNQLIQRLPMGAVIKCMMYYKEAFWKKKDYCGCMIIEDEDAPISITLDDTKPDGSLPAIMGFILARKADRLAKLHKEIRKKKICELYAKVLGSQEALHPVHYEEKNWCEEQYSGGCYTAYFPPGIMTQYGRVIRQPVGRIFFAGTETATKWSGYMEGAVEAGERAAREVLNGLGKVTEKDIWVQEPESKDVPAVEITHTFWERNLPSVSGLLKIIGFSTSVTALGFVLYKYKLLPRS
The assay can be described thus: MAO-A inhibition, kynuramine deamination assay. In kind it is biochemical. Conditions: kynuramine 80 μM, pH 7.4, 37°C; mean ±SD of triplicate. How it is done:
(§1) The inhibitory effects of the chemical components of M. pomifera (L.) on MAO-A and MAO-B were determined via the kynuramine deamination assay, where it was adapted for 96-well plates as described earlier. A fixed concentration of the substrate and varying concentrations of the inhibitor were used to determine the IC50 value at the point where 50% inhibition of the catalytic activity of the enzyme occurred. For MAO-A, the substrate (kynuramine) concentration of 80 μM was chosen, since the KM value of substrate binding reported previously was approximately 40 μM [23]. […] Similarly, for MAO-B, a substrate (kynuramine) concentration of 50 μM was chosen. The assay was performed with the addition of the inhibitor. Inhibition was calculated as percent of the product formation compared to the corresponding control (enzyme-substrate reaction) without the inhibitors. The enzyme reactions were carried out in 0.1 M potassium phosphate buffer at pH 7.4. Reaction mixtures contained 5 μg/mL of MAO-A (18.75 μL in buffer) and 10 μg/mL of MAO-B (18.75 μL in buffer). The compounds were dissolved in DMSO and diluted in buffer. The total reaction mixture volume was 75 μL, yielding a final DMSO concentration of 1.0% in the reaction mixture. The reaction mixtures were preincubated for 10 min at 37°C followed by the addition of MAO-A/MAO-B to initiate the reactions. The reaction mixtures were incubated for 20 min at 37°C and stopped by the addition of 28 μL of 2 N NaOH. The formation of 4-hydroxyquinoline was determined fluorometrically by Spectra Max M5 fluorescence plate reader (Molecular Devices, Sunnyvale, CA, USA) with an excitation and emission wavelength of 320 nm and 380 nm, respectively, using the Soft Max Pro program. Appropriate controls were set up to check the interference with the fluorescence measurements. […] The determination of IC50 values for inhibition of MAO-A and MAO-B by the M. pomifera (L.) compounds was performed using a fixed concentration of the substrate and varying the concentration of the inhibitor.
(§2) The compounds isolated from M. pomifera (L.) fruits were tested for their inhibitory effect against recombinant human MAO isoforms (MAO-A and MAO-B) in vitro. The enzymatic activity of MAO-A and MAO -B was determined via a fluorescence based method.

The next assay deals with CB1 receptor (Homo sapiens, UniProt P21554). Put plainly: Cannabinoid receptor assay, CB1 (CP-55940 as control). In kind it is binding. How it is done:
(§3) The affinities of the total extracts and the isolated compounds towards cannabinoid and opioid receptors were assessed according to the published method.
(§4) The affinities of the total extracts and the isolated compounds towards cannabinoid and opioid receptors were assessed using CP-55940 and Naloxone as controls for cannabinoid and opioid receptors assays, respectively.

Assay [2] concerns the target T2, recombinant human monoamine oxidase-B (Homo sapiens, UniProt P27338).
T2 construct: purchased BD Biosciences (Bedford, MA, USA)
T2 sequence (P27338 1-520): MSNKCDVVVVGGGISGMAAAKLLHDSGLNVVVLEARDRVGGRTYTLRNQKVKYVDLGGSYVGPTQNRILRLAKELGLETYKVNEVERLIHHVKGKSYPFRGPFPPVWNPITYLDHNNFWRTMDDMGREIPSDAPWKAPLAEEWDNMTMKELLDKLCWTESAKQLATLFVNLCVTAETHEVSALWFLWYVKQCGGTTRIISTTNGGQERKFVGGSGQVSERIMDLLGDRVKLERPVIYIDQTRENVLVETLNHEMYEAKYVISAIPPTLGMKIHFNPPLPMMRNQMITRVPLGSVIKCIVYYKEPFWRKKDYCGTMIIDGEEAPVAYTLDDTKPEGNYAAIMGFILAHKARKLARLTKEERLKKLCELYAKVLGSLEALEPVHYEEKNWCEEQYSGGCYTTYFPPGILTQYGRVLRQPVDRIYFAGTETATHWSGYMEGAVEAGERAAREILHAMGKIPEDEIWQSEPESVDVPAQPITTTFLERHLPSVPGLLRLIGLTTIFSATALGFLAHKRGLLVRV
The assay can be described thus: MAO-B inhibition, kynuramine deamination assay. In kind it is biochemical. The settings on record: for Selectivity of MAO inhibition: MAO-B versus MAO-A; for IC50: kynuramine 50 μM, pH 7.4, 37°C, mean ±SD of triplicate; for SI index MAO-A/B: ratio of MAO-A IC50 to MAO-B IC50. How it is done:
as §1, §2

The target in the next assay is μ opioid receptor (Homo sapiens, UniProt P35372). Put plainly: Opioid receptor assay, μ (Naloxone as control). In kind it is binding. Conditions: negative value read as possibly allosteric. How it is done:
as §3, §4

Another assay concerns the target κ opioid receptor (Homo sapiens, UniProt P41145). Put plainly: Opioid receptor assay, κ (Naloxone as control). In kind it is binding. The settings on record: negative value read as possibly allosteric. How it is done:
as §3, §4

For the next assay, the target named is CB2 receptor (Homo sapiens, UniProt P34972). Put plainly: Cannabinoid receptor assay, CB2 (CP-55940 as control). Format: binding. How it is done:
as §3, §4

SMILES strings stand for the structures. Where only a bound is given, the exact number is not on record here.

CB1 receptor, sequence (P21554 whole entry): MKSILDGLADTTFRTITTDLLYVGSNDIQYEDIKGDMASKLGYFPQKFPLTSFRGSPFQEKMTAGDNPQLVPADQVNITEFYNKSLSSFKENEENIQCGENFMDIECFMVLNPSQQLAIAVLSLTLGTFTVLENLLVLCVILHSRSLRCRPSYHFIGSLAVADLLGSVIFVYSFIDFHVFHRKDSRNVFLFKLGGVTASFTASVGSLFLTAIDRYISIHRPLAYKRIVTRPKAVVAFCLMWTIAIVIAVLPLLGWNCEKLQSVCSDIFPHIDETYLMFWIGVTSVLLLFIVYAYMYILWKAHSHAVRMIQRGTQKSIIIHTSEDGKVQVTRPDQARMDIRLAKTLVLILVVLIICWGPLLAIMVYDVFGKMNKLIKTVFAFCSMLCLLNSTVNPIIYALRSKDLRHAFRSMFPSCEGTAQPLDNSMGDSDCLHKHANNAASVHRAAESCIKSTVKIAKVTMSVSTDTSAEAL
CB2 receptor, sequence (P34972 whole entry): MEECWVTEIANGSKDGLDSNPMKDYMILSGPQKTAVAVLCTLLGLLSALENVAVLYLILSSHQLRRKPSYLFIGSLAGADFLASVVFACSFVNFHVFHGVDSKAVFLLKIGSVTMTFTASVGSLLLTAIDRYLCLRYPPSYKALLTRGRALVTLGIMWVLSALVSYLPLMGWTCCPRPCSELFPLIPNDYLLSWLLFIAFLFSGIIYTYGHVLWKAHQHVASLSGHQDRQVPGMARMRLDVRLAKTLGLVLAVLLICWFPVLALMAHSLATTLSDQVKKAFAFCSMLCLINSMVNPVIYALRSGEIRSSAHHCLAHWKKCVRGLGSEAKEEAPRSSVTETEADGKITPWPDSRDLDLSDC
μ opioid receptor, sequence (P35372 whole entry): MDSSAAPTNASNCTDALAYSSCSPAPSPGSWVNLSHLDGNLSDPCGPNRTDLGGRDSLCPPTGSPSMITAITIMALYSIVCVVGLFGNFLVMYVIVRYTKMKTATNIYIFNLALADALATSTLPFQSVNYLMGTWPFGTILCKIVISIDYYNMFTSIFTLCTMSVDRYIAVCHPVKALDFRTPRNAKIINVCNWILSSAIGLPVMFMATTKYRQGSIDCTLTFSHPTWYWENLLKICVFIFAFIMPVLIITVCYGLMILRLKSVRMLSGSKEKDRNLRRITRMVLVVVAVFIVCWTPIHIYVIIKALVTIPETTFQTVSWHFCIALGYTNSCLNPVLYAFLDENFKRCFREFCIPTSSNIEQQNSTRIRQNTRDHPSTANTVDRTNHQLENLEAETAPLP
κ opioid receptor, sequence (P41145 whole entry): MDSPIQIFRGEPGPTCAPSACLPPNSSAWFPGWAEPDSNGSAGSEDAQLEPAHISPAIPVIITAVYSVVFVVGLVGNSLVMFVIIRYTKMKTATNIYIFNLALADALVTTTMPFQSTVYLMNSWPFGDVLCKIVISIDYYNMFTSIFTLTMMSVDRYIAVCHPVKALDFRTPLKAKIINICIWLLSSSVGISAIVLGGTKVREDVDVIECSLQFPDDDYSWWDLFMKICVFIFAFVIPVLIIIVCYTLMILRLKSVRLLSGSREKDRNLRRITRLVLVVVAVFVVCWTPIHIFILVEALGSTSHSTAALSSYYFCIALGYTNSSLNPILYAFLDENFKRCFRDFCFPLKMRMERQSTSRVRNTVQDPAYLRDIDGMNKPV

One may read the IC50 as the concentration that gives 50% inhibition. The Ki is the dissociation constant of the complex between target and ligand, obtained from inhibition or displacement. Read a high Ki as lower affinity. In the case of `CC(C)=CCc1c2c(c(O)c3c(=O)c(-c4ccc(O)c(O)c4)coc13)C=CC(C)(C)O2` [Auriculasin (VI), auriculasin], in assay [1], the IC50 came out at 46 ± 4.48 µM. Also, on CB1 receptor, the half-inhibitory concentration (IC50) was 8.92 µM and the Ki was 4.46 µM. At CB1 receptor (10 μM), this molecule yielded a CB1 % displacement of 86.7%. For the same molecule, in assay [2], the “Selectivity of MAO inhibition” value is “selective inhibition of MAO-B”, the half-maximal inhibitory concentration (IC50) stood at 1.91 ± 0.32 µM and the “SI index MAO-A/B” value amounted to 24.073.

Consider `COC(Cc1c2c(c(O)c3c(=O)c(-c4ccc(O)c(O)c4)coc13)C=CC(C)(C)O2)C(C)(C)O` (stereo not drawn) [Kazosajin I, 3-(3,4-Dihydroxyphenyl)-5-hydroxy-10-(3-hydroxy-2-methoxy-3-methylbutyl)-8,8-dimethylpyrano[3,2-g]chromen-4(8H)-one], for which, in assay [1], the IC50 is 74.3 ± 3.44 µM. Moreover, the “μ opioid receptor % displacement” value at μ opioid receptor was −27.2%. For the same molecule, the “CB1 % displacement” value at CB1 receptor (concentration not given) turned out to be 60.5%. Moreover, the “κ opioid receptor % displacement” value on κ opioid receptor was −88.4%. Further, in assay [2], the IC50 was found to be 11.6 ± 1.39 µM and the “SI index MAO-A/B” value is given as 6.413.

Take `C=C(C)C(O)C(=O)c1c2c(c3occ(-c4ccc(O)c(O)c4)c(=O)c3c1O)C=CC(C)(C)O2` (stereo not drawn) [Kazosajin II, 3-(3,4-Dihydroxyphenyl)-5-hydroxy-6-(2-hydroxy-3-methylbut-3-enoyl)-8,8-dimethylpyrano[2,3-f]chromen-4(8H)-one]: in assay [1], the IC50 is 72 ± 3.72 µM. Further, the “CB2 % displacement” value on CB2 receptor (concentration not given) was found to be 42.3%. Further, the “CB1 % displacement” value on CB1 receptor (concentration not given) is on record as 47.9%. For the same molecule, in assay [2], the “Selectivity of MAO inhibition” value was “selective inhibition of MAO-B”, the IC50 worked out at 4.28 ± 0.67 µM and the “SI index MAO-A/B” value is on record as 16.829.

As for `CC1(C)C=Cc2c(c3c(c4c(=O)c(-c5ccc(O)cc5)coc24)OC(C)(C)C(O)C3)O1` (stereo not drawn) [Kazosajin III, 11-Hydroxy-7-(4-hydroxyphenyl)-2,2,10,10-tetramethyl-11,12-dihydro-2H-dipyrano[2,3-f: 2′,3′-h]chromen-8(10H)-one], the half-maximal inhibitory concentration (IC50) in assay [1] was greater than 100 µM. Also, in assay [2], the “Selectivity of MAO inhibition” value was “selective inhibition of MAO-B” and the IC50 amounted to 7.16 ± 1.15 µM.

Consider `COC(c1c2c(c(O)c3c(=O)c(-c4ccc(O)c(O)c4)coc13)C=CC(C)(C)O2)C1OC1(C)C` (stereo not drawn) [Kazosajin IV, 3-(3,4-Dihydroxyphenyl)-10-((3,3-dimethyloxiran-2-yl)(methoxy)methyl)-5-hydroxy-8,8-dimethylpyrano[3,2-g]chromen-4(8H)-one], for which, in assay [1], the IC50 is 71.2 ± 2.61 µM. In assay [2], the IC50 is 17.7 ± 1.06 µM and the “SI index MAO-A/B” value is 4.032.

As to `CC(C)=CCc1c2c(c3occ(-c4ccc(O)cc4)c(=O)c3c1O)C=CC(C)(C)O2` [Osajin (VIII), osajin], the IC50 is greater than 100 µM in assay [1], 7.65 µM on CB2 receptor, 3.86 µM at CB1 receptor and greater than 100 µM in assay [2]. In addition, the results for the Ki on CB2 receptor and at CB1 receptor were 3.82 µM and 1.93 µM, respectively. Also, the CB2 % displacement on CB2 receptor (10 μM) and at CB2 receptor (concentration not given) was 52.7% in each case. Besides, the CB1 % displacement on CB1 receptor (10 μM) and at CB1 receptor (concentration not given) was 93.9% throughout.

For the molecule `CC(C)=CCc1c2c(c3occ(-c4ccc(O)c(O)c4)c(=O)c3c1O)C=CC(C)(C)O2` [Pomiferin (V), pomiferin], the half-inhibitory concentration (IC50) in assay [1] is greater than 100 µM; at CB2 receptor it was 1.32 µM; against CB1 receptor, 2.11 µM; in assay [2], greater than 100 µM. For the same molecule, the CB2 % displacement at CB2 receptor (10 μM) and on CB2 receptor (concentration not given) was 66.0% each time. In addition, the inhibitory constant (Ki) on CB1 receptor worked out at 1.05 µM. In addition, the CB1 % displacement on CB1 receptor (10 μM) and at CB1 receptor (concentration not given) was 107.2% in each case.

With `CC(C)=CCc1c2c(c(O)c3c(=O)c(-c4ccc(O)cc4)coc13)C=CC(C)(C)O2` [Warangalone (VII), warangalone], the concentration for half-maximal inhibition (IC50) is greater than 100 µM in assay [1], 4.44 µM on CB2 receptor, 1.67 µM on CB1 receptor and 5.69 ± 0.38 µM in assay [2]. Moreover, the affinity on CB2 receptor corresponds to a Ki of 2.22 µM. Also, the CB2 % displacement on CB2 receptor (10 μM) was determined as 77.6%; on CB2 receptor (concentration not given), 77.57%. Further, the CB1 % displacement at CB1 receptor (10 μM) and at CB1 receptor (concentration not given) was 111.3% throughout. In assay [2], the “Selectivity of MAO inhibition” value is recorded as “selective inhibition of MAO-B”.

The values are drawn from publication PMC5820588, “Isolation and Biological Evaluation of Prenylated Flavonoids from Maclura pomifera” (Evidence-based Complementary and Alternative Medicine : eCAM, 2018).
